From patent US11555210B2, “Microbe having increased tolerance to phenolic fermentation inhibitors” (University of Ottawa, priority 2018, dated 2023)

Key:
bna7Δ (YKB4649) [1] = assay: serial dilution spot assay on YPD agar plates; assay type: cell-based, S. cerevisiae; conditions: 10 mM FA, 35 mM 4-HBA or 1 mM CA, 48 hr at 30° C.
Protocol: (§1) In addition, deletion mutants were generated for genes involved in the tryptophan catabolic pathway and their growth was assayed on solid media containing 10 mM ferulic acid. In particular, wild type yeast (BY4741) along with deletion mutants aro8Δ (YKB4799), bna7Δ (YKB4649), bna2Δ (YKB4798), bna6Δ (YKB4844), bna5Δ (YKB4845), bna4Δ (YKB4846) and bna1Δ (YKB4729) were grown to mid log phase ([…] 0.5-0.6) in YPD medium prior to being diluted to an OD600 of 0.1. Four 10-fold serial dilutions were spotted onto YPD agar plates either containing 10 mM ferulic acid or no ferulic acid. Plates were incubated for 48 hr at 30° C. Images of the plates were taken with the ChemiDoc XRS Molecular Imaging system (Biorad) and images are representative of three biological replicates.
Experiments were also conducted to determine if deletion of BNA7 could provide protection to 4-hydroxybenzoic acid or coniferyl aldehyde (CA). Wild type (BY4741) and bna7A (YKB4649) strains were grown to mid log phase in YPD medium prior to being diluted into fresh medium to an OD600 of 0.1. Four 10-fold serial dilutions were spotted onto YPD agar plates containing either no compound (Untreated), 10 mM ferulic acid (FA), 35 mM 4-hydroxybenzoic acid (4-HBA) or 1 mM coniferyl aldehyde (CA). Plates were incubated for 48 hr at 30° C. and images are representative of three biological replicates.

[2] = test system: mutants aro8Δ, bna2Δ, bna6Δ, bna5Δ, bna4Δ and bna1Δ; assay: serial dilution spot assay on YPD agar plates; assay type: cell-based, S. cerevisiae; conditions: 10 mM ferulic acid, 48 hr at 30° C.
Protocol: as §1

bna7Δ cells = assay: ROS measurement by H2DCFDA fluorescence microscopy; assay type: cell-based, S. cerevisiae; conditions: 10 mM ferulic acid for 2 hr; not statistically significant (ρ=0.756)
Protocol: For all microscopy experiments overnight cultures of wild-type yeast grown at 30° C. were re-suspended at an OD600 of 0.1 in YPD medium and allowed to reach mid-log phase prior to imaging. Measurement of ROS was performed as previously described (Kennedy et al., 2016, Sci Rep. 6, 19332). Briefly cells were incubated with 10 μM 2′,7′-dichlorodihydrofluorescein diacetate (H2DCFDA; Invitrogen cat. #D399) for 15 min in the dark. Cells were washed in sterile PBS to remove traces of the dye after which they were re-suspended in YPD medium alone, or YPD supplemented with either 2 mM coniferyl aldehyde, […]
Analysis of H2DCFDA fluorescence was performed using Velocity Software V4 (Perkin Elmer). Image J software was used to quantify the H2DCFDA fluorescence signal in cells as described by Schneider et al (Schneider et al., 2012, Nature Methods, 9, 671-675) with a slight modification. Briefly, background fluorescence was subtracted from the images and the total fluorescence of all the cells in the image was measured and divided by the number of cells in the image. […] The ratio of fluorescence per cell of treated cultures was divided by that of untreated cultures to eliminate background endogenous ROS production. […]

wild-type yeast (BY4741) = assay: ROS measurement by H2DCFDA fluorescence microscopy; assay type: cell-based, S. cerevisiae; conditions: 2 mM CA, 1 hour at 30° C.; for subcellular distribution of induced ROS: 10 mM FA or 50 mM 4-HBA
Protocol: Measurement of ROS was performed as previously described (Kennedy et al., 2016, Sci Rep. 6, 19332). Briefly cells were incubated with 10 μM 2′,7′-dichlorodihydrofluorescein diacetate (H2DCFDA; Invitrogen cat. #D399) for 15 min in the dark. […] An aliquot of 5 μL was spotted onto glass slides and covered with a cover slip prior to imaging. All images were acquired using a Leica DMI 6000 florescent microscope (Leica Microsystems GmbH, Wetzler Germany), equipped with a Sutter DG4 light source (Sutter Instruments, California, USA), Ludl emission filter wheel with Chroma band pass emission filters (Ludl Electronic Products Ltd., NY, USA) and Hamamatsu Orca AG camera (Hamamatsu Photonics, Herrsching am Ammersee, Germany). Images were acquired at 0.2 μm steps across 6 μm using a 63× oil-immersion objective with a 1.4 numerical aperture. Analysis of H2DCFDA fluorescence was performed using Velocity Software V4 (Perkin Elmer). Image J software was used to quantify the H2DCFDA fluorescence signal in cells as described by Schneider et al (Schneider et al., 2012, Nature Methods, 9, 671-675) with a slight modification. Briefly, background fluorescence was subtracted from the images and the total fluorescence of all the cells in the image was measured and divided by the number of cells in the image. The images contained a minimum of 100 cells. The ratio of fluorescence per cell of treated cultures was divided by that of untreated cultures to eliminate background endogenous ROS production.

Zwf1-GFP = Zwf1-GFP fluorescence microscopy; assay type: cell-based, S. cerevisiae; conditions: 2 mM CA for 120 min at 30° C. (ρ=9.69E-5); ferulic acid 10 mM
Protocol: For the microscopy studies, wild type cells expressing endogenously tagged Zwf1-GFP (YKB4825) were grown to mid log in YPD, prior to being washed and resuspended in YPD medium (Untreated) or YPD medium containing 2 mM coniferyl aldehyde (CA) for 120 min at 30° C. Images (FIG. 8A) are representative of three independent experiments where a minimum of 100 cells each were imaged. Scale bar represents 10 μm.

[3] = test system: Saccharomyces cerevisiae ethanol red; conditions: commercial Saccharomyces cerevisiae ethanol red; Adeboye et al., 2014; cited from earlier work
bna7Δ (YKB4649) [4] = assay: automated growth curve analysis in YPD liquid medium; assay type: cell-based, S. cerevisiae; conditions: 10 mM ferulic acid, 30° C., 72 hr
Protocol: The agar-based chemogenomic screen was confirmed by measuring the growth rate of the identified mutants in liquid YPD medium supplemented with the phenolic compounds. Briefly, overnight cultures of the mutant strains were inoculated into fresh YPD medium and strains were incubated at 30° C. until they reached the mid log phase ([…] 0.5-0.6), prior to being diluted to a final OD600 of 0.1 in a BioScreen CTM Honeycomb microplate. The growth assays were performed for each mutant in triplicate in YPD alone (control) or YPD medium supplemented with ferulic acid, 4-hydroxybenzoic acid or coniferyl aldehyde. Using a BioScreen CTM plate reader, the cultures were incubated at 30° C. for 72 hours and OD600 readings were taken every 15 min to plot growth curves. Data from the BioScreen CTM were analyzed with the PRECOG software (Fernandez-Ricaud et al., […], Nucleic acids research. 41, W591-6) to obtain the doubling time of all the strains. A PRECOG score for each of the strains tested was calculated as the ratio of the doubling time in the presence of the phenolic to the doubling time in the absence of these phenolic compounds. Using a cut-off PRECOG score of >2 and <0.4 strains were identified that were sensitive or tolerant, respectively, to the phenolic compounds. […]

Structure (SMILES)	resistance of bna7Δ / protection by deletion of BNA7 (bna7Δ (YKB4649) [1])	effect of gene deletion on ferulic acid tolerance [2]	ROS signal in bna7Δ compared to wild-type (bna7Δ cells)	subcellular distribution of induced ROS (wild-type yeast (BY4741))	Zwf1-GFP fluorescence signal/cell (Zwf1-GFP)	concentration at which the compound kills the yeast [3]	growth (OD600) of bna7Δ relative to wild-type (bna7Δ (YKB4649) [4])	ROS formation (H2DCFDA fluorescence) (wild-type yeast (BY4741); 10 mM FA, 50 mM 4-HBA or hydrogen peroxide)
COc1cc(C=CC(=O)O)ccc1O [ferulic acid, 4-hydroxy-3-methoxycinnamic acid]	resistant	no effect	slight reduction of ROS	distributed throughout the cell	no increase	5 mM	increased growth relative to the wild-type strain	
O=C(O)c1ccc(O)cc1 [4-hydroxybenzoic acid]	does not provide protection			distributed throughout the cell	no increase	11 mM		
OO [hydrogen peroxide]								induced the formation of green fluorescence signal throughout the cell
